Measured values: paper PMC6332320, “Factors Influencing Oral Bioavailability of Thai Mango Seed Kernel Extract and Its Key Phenolic Principles” (Molecules, 2015)
Like-named read-outs stand apart in the source and are kept apart here.

Assay: In vivo oral pharmacokinetic study in SD rats
Design: species or system Sprague-Dawley rats
Conditions: for MRT last / half-life / k el / Cmax / Tmax / AUC(0-t): Sprague-Dawley, rat, blood, po; for k el: read-out: Ke (converted); for AUC(0-t): read-out: AUC0–24h
Procedure: SD rats (five rats/group) were individually housed in stainless-steel metabolic cages, which allowed for the separation and collection of urine and feces. The rats were fasted overnight with ad libitum access to water prior to the day of the experiment. After a rat was anesthetized with isoflurane gas, the prepared suspension of test compound in an oral suspension vehicle was administered to the animals via oral gavage at a dose of 20 mg/kg for each compound in the mixture of MG and PGG or at 143 mg/kg MSKE, which is equivalent to approximate doses of 20 mg/kg PGG and 0.13 mg/kg MG. Subsequently, the rats’ tails were snipped near the tip to collect blood samples (approximately 50 µL), which were collected in heparinized tubes at 0, 0.50, 1, 2, 4, 6, 8 and 24 h. To investigate the excretion of phenolic compounds, urine and feces were collected between 0–24 h post-administration into tubes containing penicillin G (200 mg) and dry tubes, respectively, which were pre-weighted before use. After completing the pharmacokinetic study, the urine volume and dry feces weights were recorded, and all samples were stored at −80 °C until analysis.
The blood and urine samples were prepared according to our previously reported methods. The fecal samples were prepared by adding 30 mL methanol to the sample, and the mixture was then vortexed and sonicated for 30 min to obtain the fecal lysates, which were extracted via the same method.
The pharmacokinetic parameters of MG and PGG were calculated based on the non-compartmental method using WinNonlin 3.3 (Pharsight Corporation, Mountain View, CA, USA). The total mass of analytes was calculated according to the following equations (Equations (3)–(6)): The mass recovery (%) = (total mass in blood + total mass in urine + total mass in feces)/initial mass of analyte (3) Total mass in blood = C24h in blood × rat blood volume (70 mL/kg of body weight) (4) Total mass in urine = C0–24h in urine × volume of urine (0–24 h) (5) Total mass in feces = C0–24h in fecal lysate × volume of fecal lysate (30 mL) (6) where C24h in the blood is the concentration of analyte found in the blood sample at 24 h, and C0–24h in the urine and C0–24h in the fecal lysate are the concentrations of the analyte found in the urine and fecal samples, respectively, between 0 and 24 h.
A Waters UPLC system coupled with an ESI triple quadrupole mass spectrometer (QTRAP5500, AB Sciex, Foster City, CA, USA) was used to analyze MG and PGG in biological samples. The LC–MS/MS conditions were previously published. The UPLC conditions were Kinetex C18 column at 50 mm × 2.1 mm I.D. and 5 µm particle size (Phenomenex Inc.); mobile phase A at 0.1% formic acid in deionized water; mobile phase B at 100% acetonitrile; gradient at 0.0–0.5 min (0% B), 0.5–1.0 min (0%–30% B), 1.0–2.0 min (30%–90% B), 2.0–3.0 min (90% B), 3.0–3.5 min (90%–0% B) and 3.5–5.0 min (0% B); flow rate at 0.5 mL/min; column temperature at 40 °C; sample temperature at 20 °C; and injection volume at 10 µL. The mass spectrometer employed an MRM method in the negative ion mode. The instrument-dependent parameters for obtaining the mass spectra were set as follows: ionspray voltage at −4.5 kV; ion source temperature at 550 °C; gas 1 at 60 psi; gas 2 at 60 psi; and curtain gas at 20 psi. The unit mass resolution was set in both mass-resolving quadruples Q1 and Q3. Because of the absence of authentic standard for the glucuronide and sulfate metabolites of MG and PGG, qualification of the metabolites in the biological samples was accomplished using the compound-dependent parameters for MG and PGG.

[1] = MSKE 143 mg/kg (20 mg/kg PGG and 0.13 mg/kg MG)
[2] = mixture of MG and PGG 20 mg/kg each
[3] = mixture 20 mg/kg, p.o. vs i.p. (ref 14)
[4] = p.o., MSKE 143 mg/kg (20 mg/kg PGG and 0.13 mg/kg MG)
[5] = p.o., mixture of MG and PGG 20 mg/kg each

MRT last [1]: 11.1 ± 0.6 h
half-life [1]: 3910 ± 2960 min
k el [1]: 4.17e-06 s⁻¹
MRT last [2]: 8.69 ± 1.57 h
half-life [2]: 1490 ± 943 min
k el [2]: 1e-05 s⁻¹
Cmax [1]: 240 ± 60 nM
Tmax [1]: 0.5 h
AUC(0-t) [1]: 3.57 ± 0.79 µM·h
Cmax [2]: 1130 ± 1060 nM
Tmax [2]: 2.3 ± 1.64 h
AUC(0-t) [2]: 6.47 ± 0.75 µM·h
AUC0–24h, oral lower than intraperitoneal [3]: ~17 folds
Cmax, oral lower than intraperitoneal [3]: ~31 folds
Tmax, oral compared with intraperitoneal (slower absorption) [3]: approximately 3 folds
Vd, oral higher than intraperitoneal [3]: approximately 19 folds
t1/2, oral longer than intraperitoneal [3]: ~1.4 folds
CL [4]: 2.11 ± 1.26 L/h/kg
Vd [4]: 135.39 ± 21.94 L/kg
CL [5]: 332.06 ± 99.72 L/h/kg
time of second maximum peak of blood concentration (double-peak profile) [5]: 4 h
Structure (SMILES): COC(=O)c1cc(O)c(O)c(O)c1 [MG, methyl gallate]
